Results: patent US20250129344A1, “MODIFIED GLUTAMATE DEHYDROGENASE AND APPLICATION THEREOF” (Hunan Lier Biotech Co., Ltd., priority 2021, published 2025)
Residue numbers refer to the chain shown, from its start.

Experiments:
[1] = target: T1, Lysinibacillus sphaericus glutamate dehydrogenase (LsGluDH, SEQ ID NO: 2) variant A175G-I133V-V173S-A182R, SEQ ID NO: 38 (Lysinibacillus pinottii, UniProt A0ABT2DNY0, A175G/A182R/I133V/V173S); experiment: Dynamic properties (Michaelis-Menten) of LsGluDH mutant, PPO reductive amination; assay type: biochemical; details: PPO 5-100 mM, NADPH 0.15 mM, NH4Cl 50 mM, PBS pH 7.5, 30° C., diluted crude enzyme, 340 nm
T1 sequence (A0ABT2DNY0 1-457 A175G/A182R/I133V/V173S): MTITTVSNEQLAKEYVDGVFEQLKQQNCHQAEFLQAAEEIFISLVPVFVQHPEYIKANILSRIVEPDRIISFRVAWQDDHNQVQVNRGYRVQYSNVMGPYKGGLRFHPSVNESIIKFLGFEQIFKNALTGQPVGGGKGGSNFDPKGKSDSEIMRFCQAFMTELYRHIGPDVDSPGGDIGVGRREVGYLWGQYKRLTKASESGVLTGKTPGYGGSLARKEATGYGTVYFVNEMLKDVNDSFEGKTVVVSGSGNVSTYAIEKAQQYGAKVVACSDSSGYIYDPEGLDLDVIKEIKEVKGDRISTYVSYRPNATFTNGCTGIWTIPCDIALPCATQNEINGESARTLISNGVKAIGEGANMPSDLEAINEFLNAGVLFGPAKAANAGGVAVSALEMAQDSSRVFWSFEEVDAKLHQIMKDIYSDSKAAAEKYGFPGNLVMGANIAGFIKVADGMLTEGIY
Protocol: (§1) A plurality of reaction systems (200 μL) comprising PBS of 100 mM pH 7.5 (pH was adjusted with aqueous ammonia solution), NADPH (reductive) of 0.15 mM, NH4Cl of 50 mM, diluted (500 folds) crude enzyme solution of 10% volume and the substrate PPO at various concentrations (5-100 mM) were formulated on a 96-well plate. The intensity of the UV absorption at 340 nm was detected at 30° C., and the rate of change in absorption over time (mA/min) was recorded. The obtained parameters were plugged into Michaelis-Menten equation, in which the reaction velocity was calculated with the rate of change in absorption.
(§2) The mutants were prepared with the coding nucleic acid of LsGluDH (SEQ ID NO: 2) as the template, and the enzyme activities and the dynamic parameters Vmax and Km were measured, according to the method of Example 1. The resulted mutants and the enzyme activities and the dynamic parameters thereof are shown in Table 2, and the relative enzyme activity means the percentage of the enzyme activity of the mutant to the enzyme activity of the mutant of SEQ ID NO: 31.

[2] = target: T2, Lysinibacillus sphaericus glutamate dehydrogenase (LsGluDH, SEQ ID NO: 2) variant A175G-V173G-A182R, SEQ ID NO: 37 (Lysinibacillus pinottii, UniProt A0ABT2DNY0, A175G/A182R/V173G); experiment: as above; assay type: biochemical; details: PPO 5-100 mM, NADPH 0.15 mM, NH4Cl 50 mM, PBS pH 7.5, 30° C., diluted crude enzyme, 340 nm
T2 sequence (A0ABT2DNY0 1-457 V173G/A175G/A182R): T1 sequence (A0ABT2DNY0 1-457 A175G/A182R/I133V/V173S) with V133I, S173G
Protocol: as §1, §2

## CP(=O)(O)CCC(=O)C(=O)O [PPO, 2-carbonyl-4-(hydroxymethylphosphono) butyric acid]
[1]
  Km: 26 mM
  Vmax: 38 mA/min
[2]
  Km: 31 mM
  Vmax: 58 mA/min
